Experimental data: patent US9322066B2, “Predictors for cancer treatment” (priority 2011, dated 2016)

Test system: relapsed or refractory, rituximab-naive or -sensitive follicular B-cell NHL
Assay: Time to next anti-lymphoma therapy, Vc-R vs rituximab study, by biomarker
Format: in vivo, human
Set-up: Median, Time to Next Anti-Lymphoma Therapy / Time to Next Anti-Lymphoma Therapy, Median: unit not given here
Source text: Non-Hodgkin lymphoma (NHL) encompasses several unique malignant lymphoid disease entities that vary in clinical behavior, morphologic appearance, immunologic, and molecular phenotype. […] A randomized, open-label, active-controlled, multicenter, multinational, prospective study to compare the efficacy and safety of the combination of bortezomib and rituximab (Vc-R) to single-agent rituximab in subjects who have relapsed or refractory, rituximab-naive or -sensitive follicular B-cell NHL was performed.
Subjects were centrally randomized to Treatment Groups A (Vc-R) or B (rituximab) in a 1:1 ratio taking into account the following stratification factors: • Follicular Lymphoma International Prognostic Index (FLIPI) score (low [0 or 1 factor], intermediate [2 factors], high [≧3 factors]); • Prior rituximab therapy (yes, no); • Time since last dose of anti-lymphoma therapy (≦1 year, >1 year); • Region (United States/Canada, European Union, Rest of World).
The following clinical endpoints were included in the analysis within each treatment group and an overall comparison was made with the biomarker-related endpoints: Progression-free survival, defined as the interval between the date of randomization and the date of progressive disease (PD) or death, whichever is first reported in the ITT population; overall survival; overall response rate (complete response [CR]+CR unconfirmed [CRu]+partial response [PR]); overall CR rate (CR+CRu); duration of response; time to next anti-lymphoma therapy; and treatment free interval.

[1] = CD68 POSITIVE PERIFOLLICULAR: 0-25, White, IRC Review
[2] = CD68 POSITIVE PERIFOLLICULAR: 0-25, ≦65 years old, IRC Review
[3] = CD68 POSITIVE PERIFOLLICULAR: 26-50, Other, IRC Review
[4] = CD68 POSITIVE PERIFOLLICULAR: >75, 1 Prior Line of Therapy, IRC Review
[5] = CD68 POSITIVE PERIFOLLICULAR: >75, European Union, IRC Review
[6] = CD68 POSITIVE PERIFOLLICULAR: >75, ≦65 years old, IRC Review
[7] = NOTCH/G_A1702P: MND, subgroup White, IRC review
[8] = NOTCH/I1681N: MND, subgroup White, IRC review
[9] = NOTCH/L1679P: MND, subgroup White, IRC review
[10] = NOTCH/L1679Q: MND, subgroup White, IRC review
[11] = NOTCH/L2458V: MND, subgroup White, IRC review
[12] = NOTCH/P2513L: MND, subgroup White, IRC review
[13] = NOTCH/P2515FS4: MND, subgroup White, IRC review
[14] = NOTCH/Q2441X: MND, subgroup White, IRC review
[15] = NOTCH/Q2460X: MND, subgroup White, IRC review
[16] = NOTCH/X26DEL: MND, subgroup White, IRC review
[17] = NOTCH/X26INS: MND, subgroup White, IRC review
[18] = NOTCH/X28DEL: MND, subgroup White, IRC review
[19] = NOTCH/X28INS: MND, subgroup White, IRC review
[20] = P27 % NUCLEI POSITIVE: 0-20, 1 Prior Line of Therapy, IRC Review
[21] = P27 % NUCLEI POSITIVE: 0-20, Ann Arbor Stage III, IRC Review
[22] = P27 % NUCLEI POSITIVE: 0-20, High Tumor Burden, IRC Review
[23] = P27 % NUCLEI POSITIVE: 0-20, ≦65 years old, IRC Review
[24] = P27 % NUCLEI POSITIVE: 30-50, High Tumor Burden, IRC Review
[25] = P27 % NUCLEI POSITIVE: 80-100, European Union, IRC Review
[26] = P27 SIGNAL INTENSITY: ≦1+, High Tumor Burden, IRC Review
[27] = P27 SIGNAL INTENSITY: ≧2+, 5 Prior Lines of Therapy, IRC Review
[28] = P27 SIGNAL INTENSITY: ≧2+, European Union, IRC Review
[29] = P27 SIGNAL INTENSITY: ≧2+, Prior Rituximab Therapy, IRC Review
[30] = P27 SIGNAL INTENSITY: ≧2+, White, IRC Review
[31] = P27 SIGNAL INTENSITY: ≧2+, ≦65 years old, IRC Review
[32] = P27 SIGNAL TENSITY: ≧2+, No Subgroup, IRC Review
[33] = P65 % NUCLEAR STAINING: 0, 1 Prior Line of Therapy, IRC Review
[34] = P65 % NUCLEAR STAINING: ≦5%, 2 Prior Lines of Therapy, IRC Review
[35] = P65 % NUCLEAR STAINING: ≦5%, 5 Prior Lines of Therapy, IRC Review
[36] = P65 % NUCLEAR STAINING: ≦5%, Prior Rituximab Therapy, IRC Review
[37] = P65 % NUCLEAR STAINING: ≦5%, ≦65 years old, IRC Review
[38] = P65 % POSITIVE CYTOPLASMIC SIGNAL: >90%, 1 Prior Line of Therapy, IRC Review
[39] = P65 % POSITIVE CYTOPLASMIC SIGNAL: >90%, >1 year since last anti- lymphoma treatment, IRC Review
[40] = P65 % POSITIVE CYTOPLASMIC SIGNAL: >90%, European Union, IRC Review
[41] = P65 % POSITIVE CYTOPLASMIC SIGNAL: >90%, Male, IRC Review
[42] = P65 % POSITIVE CYTOPLASMIC SIGNAL: >90%, No Subgroup, IRC Review
[43] = P65 % POSITIVE CYTOPLASMIC SIGNAL: >90%, White, IRC Review
[44] = P65 % POSITIVE CYTOPLASMIC SIGNAL: >90%, ≦65 years old, IRC Review
[45] = P65 INTENSITY CYTOPLASMIC SIGNAL: ≦1+, Ann Arbor Stage III, IRC Review
[46] = P65 INTENSITY CYTOPLASMIC SIGNAL: ≦1+, European Union, IRC Review
[47] = P65 INTENSITY CYTOPLASMIC SIGNAL: ≧2+, 1 Prior Line of Therapy, IRC Review
[48] = P65 INTENSITY CYTOPLASMIC SIGNAL: ≧2+, Female, IRC Review
[49] = P65 INTENSITY CYTOPLASMIC SIGNAL: ≧2+, White, IRC Review

rituximab
Evt/N, Time to Next Anti-Lymphoma Therapy [1]: 19/27
Median, Time to Next Anti-Lymphoma Therapy [1]: 501
Evt/N, Time to Next Anti-Lymphoma Therapy [2]: 20/31
Median, Time to Next Anti-Lymphoma Therapy [2]: 332
Evt/N, Time to Next Anti-Lymphoma Therapy [3]: 4/4
Median, Time to Next Anti-Lymphoma Therapy [3]: 341
Evt/N, Time to Next Anti-Lymphoma Therapy [4]: 15/18
Median, Time to Next Anti-Lymphoma Therapy [4]: 437
Evt/N, Time to Next Anti-Lymphoma Therapy [5]: 13/17
Median, Time to Next Anti-Lymphoma Therapy [5]: 675
Evt/N, Time to Next Anti-Lymphoma Therapy [6]: 19/23
Median, Time to Next Anti-Lymphoma Therapy [6]: 437
Evt/N, Time to Next Anti-Lymphoma Therapy [7]: 97/152
Median, Time to Next Anti-Lymphoma Therapy [7]: 504
Evt/N, Time to Next Anti-Lymphoma Therapy [8]: 97/152
Median, Time to Next Anti-Lymphoma Therapy [8]: 504
Evt/N, Time to Next Anti-Lymphoma Therapy [9]: 97/152
Median, Time to Next Anti-Lymphoma Therapy [9]: 504
Evt/N, Time to Next Anti-Lymphoma Therapy [10]: 97/152
Median, Time to Next Anti-Lymphoma Therapy [10]: 504
Evt/N, Time to Next Anti-Lymphoma Therapy [11]: 89/140
Median, Time to Next Anti-Lymphoma Therapy [11]: 504
Evt/N, Time to Next Anti-Lymphoma Therapy [12]: 78/122
Median, Time to Next Anti-Lymphoma Therapy [12]: 504
Evt/N, Time to Next Anti-Lymphoma Therapy [13]: 99/154
Median, Time to Next Anti-Lymphoma Therapy [13]: 505
Evt/N, Time to Next Anti-Lymphoma Therapy [14]: 88/139
Median, Time to Next Anti-Lymphoma Therapy [14]: 501
Evt/N, Time to Next Anti-Lymphoma Therapy [15]: 85/131
Median, Time to Next Anti-Lymphoma Therapy [15]: 501
Evt/N, Time to Next Anti-Lymphoma Therapy [16]: 99/155
Median, Time to Next Anti-Lymphoma Therapy [16]: 505
Evt/N, Time to Next Anti-Lymphoma Therapy [17]: 101/159
Median, Time to Next Anti-Lymphoma Therapy [17]: 533
Evt/N, Time to Next Anti-Lymphoma Therapy [18]: 111/169
Median, Time to Next Anti-Lymphoma Therapy [18]: 504
Evt/N, Time to Next Anti-Lymphoma Therapy [19]: 115/174
Median, Time to Next Anti-Lymphoma Therapy [19]: 504
Evt/N, Time to Next Anti-Lymphoma Therapy [20]: 19/26
Median, Time to Next Anti-Lymphoma Therapy [20]: 434
Evt/N, Time to Next Anti-Lymphoma Therapy [21]: 14/16
Median, Time to Next Anti-Lymphoma Therapy [21]: 418
Evt/N, Time to Next Anti-Lymphoma Therapy [22]: 23/27
Median, Time to Next Anti-Lymphoma Therapy [22]: 220
Evt/N, Time to Next Anti-Lymphoma Therapy [23]: 26/34
Median, Time to Next Anti-Lymphoma Therapy [23]: 327
Evt/N, Time to Next Anti-Lymphoma Therapy [24]: 17/22
Median, Time to Next Anti-Lymphoma Therapy [24]: 421
Evt/N, Time to Next Anti-Lymphoma Therapy (P27 % NUCLEI POSITIVE: 60-70, 3 Prior Lines of Therapy, IRC Review): 1/6
Evt/N, Time to Next Anti-Lymphoma Therapy [25]: 29/41
Median, Time to Next Anti-Lymphoma Therapy [25]: 655
Evt/N, Time to Next Anti-Lymphoma Therapy [26]: 16/18
Median, Time to Next Anti-Lymphoma Therapy [26]: 220
Evt/N, Time to Next Anti-Lymphoma Therapy [27]: 5/6
Median, Time to Next Anti-Lymphoma Therapy [27]: 228
Evt/N, Time to Next Anti-Lymphoma Therapy [28]: 57/89
Median, Time to Next Anti-Lymphoma Therapy [28]: 649
Evt/N, Time to Next Anti-Lymphoma Therapy [29]: 60/88
Median, Time to Next Anti-Lymphoma Therapy [29]: 421
Evt/N, Time to Next Anti-Lymphoma Therapy [30]: 113/177
Median, Time to Next Anti-Lymphoma Therapy [30]: 533
Evt/N, Time to Next Anti-Lymphoma Therapy [31]: 103/153
Median, Time to Next Anti-Lymphoma Therapy [31]: 484
Evt/N, Time to Next Anti-Lymphoma Therapy [32]: 127/199
Median, Time to Next Anti-Lymphoma Therapy [32]: 533
Evt/N, Time to Next Anti-Lymphoma Therapy [33]: 54/79
Median, Time to Next Anti-Lymphoma Therapy [33]: 546
Evt/N, Time to Next Anti-Lymphoma Therapy [34]: 7/9
Median, Time to Next Anti-Lymphoma Therapy [34]: 225
Evt/N, Time to Next Anti-Lymphoma Therapy [35]: 3/3
Median, Time to Next Anti-Lymphoma Therapy [35]: 235
Evt/N, Time to Next Anti-Lymphoma Therapy [36]: 16/21
Median, Time to Next Anti-Lymphoma Therapy [36]: 232
Evt/N, Time to Next Anti-Lymphoma Therapy [37]: 19/29
Median, Time to Next Anti-Lymphoma Therapy [37]: 374
Evt/N, Time to Next Anti-Lymphoma Therapy [38]: 59/89
Median, Time to Next Anti-Lymphoma Therapy [38]: 550
Evt/N, Time to Next Anti-Lymphoma Therapy [39]: 69/117
Median, Time to Next Anti-Lymphoma Therapy [39]: 593
Evt/N, Time to Next Anti-Lymphoma Therapy [40]: 57/92
Median, Time to Next Anti-Lymphoma Therapy [40]: 552
Evt/N, Time to Next Anti-Lymphoma Therapy [41]: 51/72
Median, Time to Next Anti-Lymphoma Therapy [41]: 427
Evt/N, Time to Next Anti-Lymphoma Therapy [42]: 129/204
Median, Time to Next Anti-Lymphoma Therapy [42]: 505
Evt/N, Time to Next Anti-Lymphoma Therapy [43]: 113/179
Median, Time to Next Anti-Lymphoma Therapy [43]: 505
Evt/N, Time to Next Anti-Lymphoma Therapy [44]: 103/154
Median, Time to Next Anti-Lymphoma Therapy [44]: 484
Evt/N, Time to Next Anti-Lymphoma Therapy [45]: 10/11
Median, Time to Next Anti-Lymphoma Therapy [45]: 261
Evt/N, Time to Next Anti-Lymphoma Therapy [46]: 13/18
Median, Time to Next Anti-Lymphoma Therapy [46]: 409
Evt/N, Time to Next Anti-Lymphoma Therapy [47]: 54/85
Median, Time to Next Anti-Lymphoma Therapy [47]: 568
Evt/N, Time to Next Anti-Lymphoma Therapy [48]: 74/129
Median, Time to Next Anti-Lymphoma Therapy [48]: 537
Evt/N, Time to Next Anti-Lymphoma Therapy [49]: 109/176
Median, Time to Next Anti-Lymphoma Therapy [49]: 533
Evt/N, Time to Next Anti-Lymphoma Therapy (P65 INTENSITY CYTOPLASMIC SIGNAL: ≧2+, ≦65 years old, IRC Review): 101/152
